In PMC9953703, “Bacterial Quorum-Sensing Peptides as Immune Modulators Present in Systemic Circulation” (Biomolecules, 2023):
Residues, ends and D or L forms follow the SMILES beside them.

How the values were obtained:
in vitro [1] = conditions: human plasma (500 µL) in Krebs-Henseleit buffer pH 7.4, 100 µg peptide, 37 °C shaking, 0, 30 and 120 min, UPLC-PDA, first-order kinetics; for half-life: human, plasma, pH 7.4, Plasma Half-Life
Method: In vitro chemical and metabolic stability of Q007, Q010, Q017 and Q212 was determined in cell medium and human plasma, respectively, using previously described procedures. In brief, 100 µg of peptide was incubated in Krebs–Henseleit buffer pH 7.4 with cell medium/plasma (500 µL) at 37 °C while shaking. At predetermined time intervals (i.e., 0, 6 and 24 h for cell medium; 0, 30 and 120 min for plasma), aliquots were immediately transferred into microtubes containing 1:1 volume of 1% (v/v) trifluoroacetic acid solution in water. The enzyme reaction was further stopped by heating the solution at 95 °C for 5 min. Next, the samples were centrifuged to precipitate the denatured proteins and the supernatant analysed using UPLC-PDA (Waters, Milford, MA, USA). Appropriate placebo solutions were similarly prepared. Assuming first-order kinetics, the rate constant k was obtained from ln(Pt/Pt0) = −kt, from which the half-life was determined as T1/2 = ln(2)/k.

human red blood cells = conditions: human RBC, 1 μM QSP, 1 h, 37 °C
Method: In vitro haemolysis of Q007, Q010, Q017 and Q212 was determined using previously described procedures. Briefly, freshly obtained human blood was centrifuged and the precipitate washed using freshly prepared 150 mM NaCl solution. After the final centrifugation step, the precipitate was resuspended into 100 mM sodium phosphate buffer pH 7.4. A 1 to 10 RBC solution was incubated for 1 h at 37 °C with QSP at a concentration of 1 μM. The absorbance of the supernatant was measured at 405 nm and corrected for the blank absorbance. The percent haemolysis was then calculated using the following equation: [(Asample − Ablank)/(Apositive control − Ablank)] × 100, with 1% (v/v) Triton X-100 being the positive control.

in vitro [2] = conditions: human, Caco-2
Method: Caco-2 permeability tests were performed as described by Wynendaele et al. [7], based on the protocol of Hubatsch et al. [14]. Briefly, Caco-2 cells were seeded on 12-well polycarbonate membrane filters (0.4 μm pore size, Corning, Teltow, Germany) and left for differentiation during 21–29 days. […] Samples were quantitatively analysed using UPLC-MS/MS. Four independent biological replicates were used (different days and well-plates), with each between 3 and 6 technical replicates (i.e., different wells on one plate/in one day).

Row | Compound | Plasma Half-Life (in vitro [1]) | half-life (in vitro [1]) | haemolysis-inducing effect (human red blood cells) | Papp A→B at 30 min (in vitro [2])
1 | C[C@@H](O)[C@H](NC(=O)[C@H](Cc1c[nH]c2ccccc12)NC(=O)[C@@H]1CCCN1C(=O)[C@H](CO)NC(=O)[C@@H](N)Cc1ccc(O)cc1)C(=O)N[C@@H](CC(N)=O)C(=O)N[C@@H](Cc1ccccc1)C(N)=O [Q007, RNAIII Inhibiting Peptide (RIP)] (H-YSPWTNF-NH2) | 2.2 h | 2 h | did not induce haemolysis | 
2 | CC[C@H](C)[C@H](NC(=O)[C@H](CC(C)C)NC(=O)[C@H](C)N)C(=O)N[C@@H](CC(C)C)C(=O)N[C@H](C(=O)N[C@@H](CC(C)C)C(=O)N[C@H](C(=O)N[C@@H](CO)C(=O)O)C(C)C)[C@@H](C)O [Q017, iPD1] (H-ALILTLVS-OH) |  | 2.5 h |  | 
3 | CC(C)[C@H](N)C(=O)N1CCC[C@H]1C(=O)N[C@@H](Cc1ccccc1)C(=O)N[C@@H](CCC(=O)O)C(=O)N[C@@H](Cc1ccccc1)C(=O)O [Q212, PapR5III] (H-VPFEF-OH) |  | 0.2 h |  | 
4 | CC(C)C[C@H](NC(=O)[C@H](CC(=O)O)NC(=O)[C@H](C)N)C(=O)N1CCC[C@H]1C(=O)N[C@@H](Cc1ccccc1)C(=O)N[C@@H](CCC(=O)O)C(=O)N[C@@H](Cc1ccccc1)C(=O)O [Q010, PapR7I] (H-ADLPFEF-OH) | 9.2 h | 9 h | lack of haemolysis-inducing effects | 0.0129 ×10⁻⁶ cm/s
